Assay results from patent US20050282757A1, “Peptide boronic acid compounds useful in anticoagulation” (Trigen Limited, priority 2002, published 2005).
Converted amounts (≈) assume the structure as drawn. “And” between values parts separate entries of the source, which are not always exact repeats. Identical values can stand only once. “Also recorded” adds a separate entry of the source.

How the values were obtained:
thrombin time [1] = test: Oral absorption in rat, thrombin time (Example 43); assay type: in vivo, male Wistar rats; conditions: 20 mg/kg oral gavage
Method: The procedure of Example 42 was followed.
The per-oral studies were performed using male Wistar rats, approximately 8 weeks of age and weighing between 250 and 300 g.
Food was withheld overnight prior to dosing and returned approximately 2 hours post-dose. Water was available adlibitum.
Each animal received a single administration of control or test article by oral gavage, using a constant dose volume of 4 mL/kg.
Individual dose volumes were based on individual body weights, obtained on the day of dosing.
(§1) Approximately 0.6 mL of blood was collected via a tail vein into 3.8% tri sodium citrate tubes approximately 48 hours prior to dosing and again at 0.5, 1, 2, 4 and 8 hours post-dose.
(§2) Plasma was prepared by centrifugation at […] for 10 minutes at 4° C. Plasma was stored frozen (nominally −20° C.) prior to analysis in an automated coagulometer.

[2] = Maximum aqueous solubility by UV after shaking in water at 37° C.; assay type: physicochemical; conditions: read-out: Solubility when dissolved at 50 mg/ml
thrombin time [3] = test: Intraduodenal absorption in rat, thrombin time (Examples 42 and 44); assay type: in vivo, male Wistar rats; parameters: Mean increase in thrombin time / Thrombin time increase: unit not given here; conditions: for Group mean thrombin time (s ± sd): 20 mg/kg intraduodenal
Method: • Place 10 mg of the relevant compound in an Eppendorf cup • Add 0.5 mL ethanol and shake for 10 minutes • Sonicate for 10 minutes • Add 1.5 mL of buffer • Shake for additional 15 minutes • Resulting target concentration: 5 mg/mL B. Intraduodenal Studies
The intraduodenal studies were performed using male Wistar rats, approximately 8 weeks of age and weighing between 250 and 300 g.
Food was withheld overnight prior to dosing and returned approximately 2 hours post-dose. Water was available ad libitum.
Animals were anaesthetised using gaseous halothane. A small incision was made in the abdomen and the duodenum located. Each animal received a single administration of control or test article by injection directly into the duodenum, using a constant dose volume of 4 mL/kg. Following administration the incision was closed using surgical staples.
Individual dose volumes were based on individual body weights, obtained on the day of dosing. Treatments employed for the study were as follows:
as §1, §2
The thrombin times determined in example 42 were analysed to determine the standard deviation for increase in thrombin time, expressed as a percentage of the mean value (this is sometimes called the ‘coefficient of variation’).

thrombin time and APTT = test: Oral administration in dog, PK/PD (Example 45)
Method: Three female and three male dogs were used for each leg of the study. The weight range of the dogs was 8-18 kg.
The PD was measured as thrombin time and APTT using an automated coagulometer. Plasma concentrations were measured using an LCMS/MS method.
The dose was tailored on an individual basis for each dog.

[4] = Stability in simulated gastric fluid (Example 51); assay type: in vitro ADME; conditions: 37° C.
Method: Approximately 2.5 mg of the compound is dissolved in 50 ml gastric fluid (37° C., according to BP with pepsin, an aliquot is transferred into an HPLC-vial and analysed immediately (time period =0). The aliquots for further time periods in HPLC-vials are stored in an autosampler at 37° C. […]

[5] = Hydrolysis under HPLC assay conditions; assay type: physicochemical; conditions: acid conditions of an HPLC assay / HPLC sample preparation
From the text: It has been discovered that TRI 50b tends to hydrolyse.

[6] = individual rats dosed intraduodenally, in s
[7] = gastric juice 0 min, initial set to 100

## COCCC[C@H](NC(=O)[C@@H]1CCCN1C(=O)[C@@H](Cc1ccccc1)NC(=O)OCc1ccccc1)B(O)O [TRI 50c, Cbz-(R)-Phe-(S)-Pro-(R)-Mpg-B(OH)2]
Thrombin time [1]; 0.5 hour
  Group mean thrombin times (s ± sd): 26.8 ± 1.96 s
Thrombin time [1]; 1 hour
  Group mean thrombin times (s ± sd): 23.3 ± 3.68 s
Thrombin time [1]; 2 hour
  Group mean thrombin times (s ± sd): 23.9 ± 2.25 s
Thrombin time [1]; 4 hour
  Group mean thrombin times (s ± sd): 23.1 ± 2.70 s
Thrombin time [1]; 8 hour
  Group mean thrombin times (s ± sd): 25.1 ± 0.33 s
Thrombin time [1]; −48 hour (pre-dose)
  Group mean thrombin times (s ± sd): 22.9 ± 2.28 s
[2]
  solubility: 8 mM (≈ 4200 µg/mL)
Thrombin time [3]; 0.5 hour
  Group mean thrombin time (s ± sd): 42.1 ± 19.54 s
Thrombin time [3]; 1 hour
  Group mean thrombin time (s ± sd): 27.5 ± 9.42 s
Thrombin time [3]; 2 hour
  Group mean thrombin time (s ± sd): 23.5 ± 6.40 s
Thrombin time [3]; 4 hour
  Group mean thrombin time (s ± sd): 21.8 ± 2.33 s
Thrombin time [3]; 8 hour
  Group mean thrombin time (s ± sd): 21.5 ± 2.67 s
Thrombin time [3]; −48 hour (pre-dose)
  Group mean thrombin time (s ± sd): 21.3 ± 2.69 s
Thrombin time [3]; 0.5 h minus 0 h, intraduodenal
  Mean increase in thrombin time: 20.26
Thrombin time [3]; [6]
  Thrombin time, 0 h: 23.70 and 23.10 and 16.85 and 21.67
  Thrombin time, 0.5 h: 40.02 and 40.20 and 23.60 and 62.55
Thrombin time [3]; individual rats, 0.5 h minus 0 h
  Thrombin time increase: 16.32 and 17.10 and 6.75 and 40.88
Thrombin time and APTT
  absorption as estimated by dynamic response (TT): Two animals failed to significantly absorb TRI 50c
  time of peak thrombin time post dose: 1.5 h
Thrombin time and APTT; base line 15 seconds (calcium salt), 15.4 seconds (TRI 50c)
  mean thrombin clotting time at peak (C max): 34.2 s
Thrombin time and APTT; enterically coated gelatine capsules
  tolerance: tolerated well with no adverse events; also recorded: well tolerated orally

## COCCC[C@H](NC(=O)[C@@H]1CCCN1C(=O)[C@@H](Cc1ccc(F)cc1)NC(=O)OCc1ccccc1)B([O-])O.[Na+] [TRIf monosodium salt]
[4]; [7]
  results, peak at rt 14.5 min: 100.0 peak-area-%
  results, peak at rt 17.3 min: 100.0 peak-area-%
  results, peak at rt […]: 100.0 peak-area-%
[4]; gastric juice 35 min
  results, peak at rt 14.5 min: 89.6 peak-area-%
  results, peak at rt 17.3 min: 99.1 peak-area-%
  results, peak at rt […]: 101.4 peak-area-%
[4]; gastric juice 70 min
  results, peak at rt 14.5 min: 84.6 peak-area-%
  results, peak at rt 17.3 min: 101.8 peak-area-%
  results, peak at rt […]: 101.1 peak-area-%
[4]; gastric juice 105 min
  results, peak at rt 14.5 min: 94.2 peak-area-%
  results, peak at rt 17.3 min: 100.3 peak-area-%
  results, peak at rt […]: 97.7 peak-area-%
[4]; gastric juice 140 min
  results, peak at rt 14.5 min: 93.9 peak-area-%
  results, peak at rt 17.3 min: 91.4 peak-area-%
  results, peak at rt […]: 94.6 peak-area-%
[4]; gastric juice 175 min
  results, peak at rt 14.5 min: 94.9 peak-area-%
  results, peak at rt 17.3 min: 97.7 peak-area-%
  results, peak at rt […]: 98.6 peak-area-%
[4]; gastric juice 210 min
  results, peak at rt 14.5 min: 98.1 peak-area-%
  results, peak at rt 17.3 min: 94.1 peak-area-%
  results, peak at rt […]: 94.4 peak-area-%

## COCCC[C@H](NC(=O)[C@@H]1CCCN1C(=O)[C@@H](Cc1ccccc1)NC(=O)OCc1ccccc1)B1OC(C)(C)C(C)(C)O1 [TRI 50b, Cbz-(R)-Phe-Pro-BoroMpg-OPinacol]
[5]
  stability under HPLC assay conditions: converted to the acid form with a short half life

## COCCC[C@H](NC(=O)[C@@H]1CCCN1C(=O)[C@@H](Cc1ccccc1)NC(=O)OCc1ccccc1)B([O-])O.[K+] [Potassium Salt of TRI50C]
Thrombin time [1]; 0.5 hour
  Group mean thrombin times (s ± sd): 24.7 ± 2.18 s
Thrombin time [1]; 1 hour
  Group mean thrombin times (s ± sd): 24.1 ± 1.87 s
Thrombin time [1]; 2 hour
  Group mean thrombin times (s ± sd): 22.9 ± 3.29 s
Thrombin time [1]; 4 hour
  Group mean thrombin times (s ± sd): 23.2 ± 1.24 s
Thrombin time [1]; 8 hour
  Group mean thrombin times (s ± sd): 23.8 ± 1.79 s
Thrombin time [1]; −48 hour (pre-dose)
  Group mean thrombin times (s ± sd): 22.0 ± 1.40 s
Thrombin time [3]; 0.5 hour
  Group mean thrombin time (s ± sd): 26.5 ± 3.64 s
Thrombin time [3]; 1 hour
  Group mean thrombin time (s ± sd): 24.4 ± 3.35 s
Thrombin time [3]; 2 hour
  Group mean thrombin time (s ± sd): 23.2 ± 0.83 s
Thrombin time [3]; 4 hour
  Group mean thrombin time (s ± sd): 23.2 ± 2.36 s
Thrombin time [3]; 8 hour
  Group mean thrombin time (s ± sd): 21.6 ± 0.70 s
Thrombin time [3]; −48 hour (pre-dose)
  Group mean thrombin time (s ± sd): 20.0 ± 1.92 s
